The assay concerns the target T1, human Npt2a (Homo sapiens, UniProt Q06495).
T1 construct: expressed in transfected cells
T1 sequence (Q06495 1-639): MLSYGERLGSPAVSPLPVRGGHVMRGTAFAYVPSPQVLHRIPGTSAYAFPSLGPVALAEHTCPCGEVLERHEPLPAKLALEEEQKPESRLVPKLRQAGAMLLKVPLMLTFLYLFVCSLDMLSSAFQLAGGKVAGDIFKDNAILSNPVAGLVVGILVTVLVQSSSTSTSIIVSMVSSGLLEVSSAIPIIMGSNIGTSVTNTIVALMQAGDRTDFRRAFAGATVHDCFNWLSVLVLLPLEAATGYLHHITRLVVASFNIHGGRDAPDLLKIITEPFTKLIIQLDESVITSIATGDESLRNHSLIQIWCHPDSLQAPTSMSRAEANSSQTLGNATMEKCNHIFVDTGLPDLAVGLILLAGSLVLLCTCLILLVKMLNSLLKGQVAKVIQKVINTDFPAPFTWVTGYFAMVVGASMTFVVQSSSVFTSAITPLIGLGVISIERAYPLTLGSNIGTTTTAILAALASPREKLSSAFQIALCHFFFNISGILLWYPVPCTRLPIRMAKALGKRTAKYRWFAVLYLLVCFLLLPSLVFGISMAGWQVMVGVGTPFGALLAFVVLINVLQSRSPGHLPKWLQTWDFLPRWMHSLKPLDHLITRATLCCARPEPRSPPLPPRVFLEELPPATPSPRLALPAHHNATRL
Briefly: Npt2a activity cell based assay, membrane potential dye, CHO T-REx hNpt2a cells. As to conditions: doxycycline-induced, depolarization by sodium phosphate influx, average or median values if tested more than once. On the procedure:
For measuring Npt2a activity in a cell based assay, a stable CHO cell line with inducible Npt2a expression was generated. Therefore, CHO T-Rex cells (life technologies cat. R718-07) were stably transfected with doxycycline-inducible human NPT2a (pcDNA5TO-hNpt2a). The obtained CHO T-REx hNpt2a cells were routinely cultured in Dulbecco's MEM/F12 (4.5 g/l Glucose, Gibco cat. 21331-020; 500 mL) supplemented with 10 ml Glutamax 100×, Sodium pyruvate (7 mL of 100 mM solution), HEPES (10 mL of 1 M solution), Sodium bicarbonate (10 mL of 7.5% solution), 10% Fetal Bovine Serum Tetracycline free (Clontech cat. 631106, 500 ml), Penicillin-Streptomycin (5 mL of 100× Solution), Blasticidin 10 μg/mL and 400 μg/mL Hygromycin.
Activity of Npt2a was detected by following depolarization of cellular membrane potential by influx of sodium phosphate using fluorescent membrane potential dye kit BLUE (Molecular devices cat. R8034). For Npt2a activity measurements, CHO T-Rex hNpt2a cells were seeded into 1536 well microtiter plates (GREINER Bio-One cat. 782092) with 750 cells/well in 7 μL/w of complete medium (2% Tetracycline-free FBS, 2% Poly-D-Lysine) without selective agents+Doxycycline 0.5 μg/mL to induce Npt2a gene expression, and grown for 24 h at 37° C., 5% carbon dioxide.
On the day of experiment a 1×MPdye Loading Solution was freshly prepared by re-suspending 15 mg of Blue MPdye powder in 10 mL of NHE buffer sodium-free (140 mM N-Methyl-D-glucamine, 5.4 mM KCl, 1 mM CaCl2, 11 mM D(±)-Glucose water free, 1.2 mM MgCl2, 10 mM HEPES; pH 7.4 (adjusted with hydrochloric acid); sterile filtered). 5 μl medium was removed from plates by robotic manipulation, then 5 μL/well of sodium-free NHE buffer was added. After incubation for 2 min, this washing step was repeated once. Then, 5 μL/w of buffer was removed from plates and cells were incubated for 5 min at room temperature with 5 μL/w of MPdye Loading Solution (1× in Sodium-free NHE Buffer). Test compounds were added to the cells at final test concentrations between 50 μM and 1 nM (0.6 μL/well, final DMSO 0.6%, prepared in MPDye Loading Solution) and incubated for 5 min at room temperature.
Plates were analyzed with an in house CCD camera device using a λexc 510-545 nm/λem 565-625 nm filter. Fluorescence was detected for 15 sec (background measurement M1). Activity of Npt2a was triggered by addition of 2 μL/well of 30 mM Na+ and 1 mM phosphate (prepared in a mixture of NHE Buffer Na+ free and NHE Buffer 140 mM Na+). Fluorescence was followed for 2-3 min (depolarization measurement M2). Data was normalized to cell number and dye loading efficiency by calculating M2/M1. This quotient was plotted against test compound concentration. Graph Pad Prism or equivalent in house software was used to create sigmoidal dose-response curves (variable slope) and determine IC50 values.
A word on the IC50: it is the concentration that inhibits the measured activity by half. High values mean a need for much substance, low ones inhibition by little substance. Regarding `Cc1nn(-c2cc(Nc3c(C)c(-c4ccc(C#N)cc4)nn3CC3CC3)ncn2)c(C)c1C(O)C(F)(F)F` (racemic) [Example 358, 4-{1-(cyclopropylmethyl)-5-[(6-{3,5-dimethyl-4-[(±)-2,2,2-trifluoro-1-hydroxyethyl]-1H-pyrazol-1-yl}pyrimidin-4-yl)amino]-4-methyl-1H-pyrazol-3-yl}benzonitrile], the midpoint of inhibition, the IC50, lay at 10 nM.
`Cc1cc(C)n(-c2cc(Nc3c(C)c(-c4ccc(F)cc4)nn3CC(O)C3CC3)ncn2)n1` (racemic) [Example 369, (±)-1-cyclopropyl-2-[5-{[6-(3,5-dimethyl-1H-pyrazol-1-yl)pyrimidin-4-yl]amino}-3-(4-fluorophenyl)-4-methyl-1H-pyrazol-1-yl]ethanol] gave an IC50 of 420 nM.
For the compound `Cc1nn(-c2cc(Nc3c(C)c(-c4ccc(F)cc4)nn3CC3CC3)ncn2)c(C)c1C(O)C(F)(F)F` (racemic) [Example 374, (±)-1-[1-(6-{[1-(cyclopropylmethyl)-3-(4-fluorophenyl)-4-methyl-1H-pyrazol-5-yl]amino}pyrimidin-4-yl)-3,5-dimethyl-1H-pyrazol-4-yl]-2,2,2-trifluoroethanol], the IC50 turned out to be 63 nM.
With `Cc1nn(-c2cc(Nc3c(C)c(-c4ccc(F)cc4)nn3CC3CC3)ncn2)c2c1C(O)(C(F)(F)F)CC2` (racemic) [Example 386, (±)-1-(6-{[1-(cyclopropylmethyl)-3-(4-fluorophenyl)-4-methyl-1H-pyrazol-5-yl]amino}pyrimidin-4-yl)-3-methyl-4-(trifluoromethyl)-1,4,5,6-tetrahydrocyclopenta[c]pyrazol-4-ol] the figure was 12 nM; with `Cc1nn(-c2cc(Nc3c(C)c(-c4ccc(C#N)cc4)nn3C)ncn2)c(C)c1C(O)C(F)(F)F` (racemic) [Example 387, (±)-4-{5-[(6-{3,5-dimethyl-4-[2,2,2-trifluoro-1-hydroxyethyl]-1H-pyrazol-1-yl}pyrimidin-4-yl)amino]-1,4-dimethyl-1H-pyrazol-3-yl}benzonitrile], 70 nM; with `Cc1nn(-c2cc(Nc3c(C)c(-c4ccc(F)cc4)nn3CC3CC3)ncn2)c(C)c1C(O)C(F)F` (racemic) [Example 392, (±)-1-[1-(6-{[1-(cyclopropylmethyl)-3-(4-fluorophenyl)-4-methyl-1H-pyrazol-5-yl]amino}pyrimidin-4-yl)-3,5-dimethyl-1H-pyrazol-4-yl]-2,2-difluoroethanol], 18 nM.
As to `Cc1c(-c2ccc(F)cc2)nn(CC2CC2)c1Nc1cc(-n2nc3c(c2C)C(O)(C(F)(F)F)CC3)ncn1` (racemic) [Example 403, (±)-2-(6-{[1-(cyclopropylmethyl)-3-(4-fluorophenyl)-4-methyl-1H-pyrazol-5-yl]amino}pyrimidin-4-yl)-3-methyl-4-(trifluoromethyl)-2,4,5,6-tetrahydrocyclopenta[c]pyrazol-4-ol], the IC50 is 12 nM.
Take `Cc1c(-c2ccc(F)cc2)nn(CC2CC2)c1Nc1cc(-n2nc3c(c2C)C(C)(O)CC3)ncn1` (racemic) [Example 404, (±)-2-(6-{[1-(cyclopropylmethyl)-3-(4-fluorophenyl)-4-methyl-1H-pyrazol-5-yl]amino}pyrimidin-4-yl)-3,4-dimethyl-2,4,5,6-tetrahydrocyclopenta[c]pyrazol-4-ol]: the IC50 amounted to 13 nM.
With `Cc1nn(-c2cc(Nc3c(C)c(-c4ccc(F)cc4)nn3CC3CC3)ncn2)c(C)c1C(O)C1CC1` (racemic) [Example 405, (±)-cyclopropyl[1-(6-{[1-(cyclopropylmethyl)-3-(4-fluorophenyl)-4-methyl-1H-pyrazol-5-yl]amino}pyrimidin-4-yl)-3,5-dimethyl-1H-pyrazol-4-yl]methanol] the figure was 14 nM.
With `COc1c(-c2ccc(C#N)cc2)nn(C)c1Nc1cc(-n2nc(C)c(C(O)C(F)(F)F)c2C)ncn1` (racemic) [Example 425, (±)-4-{5-[(6-{3,5-dimethyl-4-[2,2,2-trifluoro-1-hydroxyethyl]-1H-pyrazol-1-yl}pyrimidin-4-yl)amino]-4-methoxy-1-methyl-1H-pyrazol-3-yl}benzonitrile] the figure was 415 nM.
For `COc1c(Nc2cc(-n3nc(C)c(C(O)C4CC4)c3C)ncn2)nn(C)c1-c1ccc(C#N)cc1` (racemic) [Example 459, (±)-4-{3-[(6-{4-[cyclopropyl(hydroxy)methyl]-3,5-dimethyl-1H-pyrazol-1-yl}pyrimidin-4-yl)amino]-4-methoxy-1-methyl-1H-pyrazol-5-yl}benzonitrile] the value was 46 nM.
`Cc1nn(-c2cc(Nc3c(C)c(-c4ccc(C(F)F)cc4)nn3CC3CC3)ncn2)c(C)c1C(O)C1CC1` (racemic) [Example 460, (±)-cyclopropyl {1-[6-({1-(cyclopropylmethyl)-3-[4-(difluoromethyl)phenyl]-4-methyl-1H-pyrazol-5-yl}amino)pyrimidin-4-yl]-3,5-dimethyl-1H-pyrazol-4-yl}methanol] showed an IC50 of 98 nM.
For `Cc1nn(-c2cc(Nc3c(C)c(-c4ccc(F)cc4)nn3CC3CC3)ncn2)c(C)c1C(N(C)C)C(F)(F)F` (racemic) [Example 504, N-[1-(cyclopropylmethyl)-3-(4-fluorophenyl)-4-methyl-1H-pyrazol-5-yl]-6-{4-[(±)-1-(dimethylamino)-2,2,2-trifluoroethyl]-3,5-dimethyl-1H-pyrazol-1-yl}pyrimidin-4-amine] the value was 5 nM.
With `CCc1c(Nc2cc(-n3nc(C)c(C(=O)N4CCCC4C)c3C)ncn2)nn(C)c1-c1ccc(F)cc1` (single isomer, unassigned) [Example 106, [1-ent-(6-{[4-ethyl-5-(4-fluorophenyl)-1-methyl-1H-pyrazol-3-yl]amino}pyrimidin-4-yl)-3,5-dimethyl-1H-pyrazol-4-yl](2-methylpyrrolidin-1-yl)methanone] the figure was 120 nM.
For `CCc1c(Nc2cc(-n3nc(C)c(C(=O)N4CCCC4C)c3C)ncn2)nn(C)c1-c1ccc(F)cc1` (single isomer, unassigned) [Example 107, [1-ent-(6-{[4-ethyl-5-(4-fluorophenyl)-1-methyl-1H-pyrazol-3-yl]amino}pyrimidin-4-yl)-3,5-dimethyl-1H-pyrazol-4-yl](2-methylpyrrolidin-1-yl)methanone] the value was 293 nM.
For the compound `COC(C)c1c(C)nn(-c2cc(Nc3c(C)c(-c4ccc(F)cc4)nn3CC3CC3)ncn2)c1C` (single isomer, unassigned) [Example 327, N-[1-(cyclopropylmethyl)-3-(4-fluorophenyl)-4-methyl-1H-pyrazol-5-yl]-6-{4-[1-methoxyethyl]-3,5-dimethyl-1H-pyrazol-1-yl}pyrimidin-4-amine], the IC50 worked out at 4 nM.
Compound `COC(C)c1c(C)nn(-c2cc(Nc3c(C)c(-c4ccc(F)cc4)nn3CC3CC3)ncn2)c1C` (single isomer, unassigned) [Example 328, N-[1-(cyclopropylmethyl)-3-(4-fluorophenyl)-4-methyl-1H-pyrazol-5-yl]-6-{4-[1-methoxyethyl]-3,5-dimethyl-1H-pyrazol-1-yl}pyrimidin-4-amine] registered an IC50 of 4 nM.

For the origin of these results see patent US11208400B2, “Substituted 6-(1H-pyrazol-1-yl)pyrimidin-4-amine derivatives and uses thereof” (Bayer Aktiengesellschaft, priority 2016, dated 2021).
